Assay results as given in patent publication US9790496B2, “Microrna compounds and methods for modulating MIR-21 activity” (Regulus Therapeutics, Inc., priority 2011, dated 2017).
“And” between values parts separate entries of the source, which are not always exact repeats. Identical values can stand only once. “Also recorded” adds a separate entry of the source.

How the values were obtained:
[1] = system: miR-21; assay: miR-21 luciferase sensor assay in Hela cells; format: cell-based
[2] = system: unilateral ureteral obstruction (UUO) model of fibrosis; assay: UUO model: collagen area fraction of kidney tissue (picrosirius red histology); format: in vivo, mice; conditions: UUO comparison study, 25070 20 mg/kg s.c., irbesartan PO
Description: Control treatment groups included UUO only (sham) and UUO with PBS administered subcutaneously. An additional control group included UUO with Tween-MC/20 carrier perorally. 25070 administered subcutaneously at dose of 20 mg/kg at 5 days prior to, 2 days prior to, and 3 days after, the UUO procedure. Irbesartan was administered perorally on daily on days 0 through 7 following the UUO procedure. Animals were sacrificed on Day 10 following the UUO procedure. Kidney tissue was collected for measurement of collagen 1A1 and collagen 3A1 expression.
The ‘collagen area fraction’ is measured histologically through quantitative image processing of the area of kidney tissue that is stained red by the picrosirius red stain; the percent detected as red is normalized by the area of kidney section.

[3] = system: ischemia reperfusion injury (IRI) model; assay: Unilateral IRI model: collagen area fraction of kidney tissue; format: in vivo, mouse
Description: A model of ischemia reperfusion injury (IRI) is created in the mouse through unilateral or bilateral clamping of kidney arteries, which leads to tubule damage, inflammation, and fibrosis. Kidney dysfunction can occur either early (<5 days) or late (>7 days) in this model, with the early time points useful to test candidate agents for the treatment of acute kidney injury, and the later time points useful to model chronic fibrosis.
Anti-miR-21 compounds were tested in the unilateral IRI model. Unilateral IRI was induced for a period of 30 minutes. Treatment groups were as follows: sham IRI procedure; IRI with PBS administered subcutaneously; IRI with anti-miR-21 compound 25070 administered intraperitoneally at a dose of 20 mg/kg; the 2′-fluoro/2′-MOE modified anti-miR-21 25919 administered intraperitoneally at a dose of 20 mg/kg; and a 2′-fluoro/2′ modified mismatch anti-miR-21 (having three mismatches to the sequence of miR-21) 25319 administered intraperitoneally at a dose of 20 mg/kg. PBS or anti-miR compound was administered on days 5, 6, and 7 following IRI, and animals were sacrificed 14 days after IRI. As anti-miR compound is administered 5 days following the injury to the kidney, or later, when fibrosis has already occurred to some extent, this treatment regimen is considered a therapeutic regimen, rather than a prophylactic regimen.
Kidney tissue was collected for analysis of collagen 1A1 and collagen 3A1 expression (shown in Table O), and collagen area fraction (shown in Table P).
A similar study was performed with the same treatment groups and additional days of treatment. In this study, treatments were administered intraperitoneally at days 5, 6, 7, 14, and 21 following the IRI procedure Animals were sacrificed on Day 27, and kidney tissue was collected for analysis of collagen 1A1 and collagen 3A1 expression, as well as collagen area fraction.

[4] = Ex vivo liver homogenate stability assay (HPLC-TOF MS); conditions: 5 μM in liver homogenate (50 mg tissue per ml), 24 hours at 37° C.
[5] = In vivo stability: compound in kidney tissue after administration to mice; conditions: mice; by 7 days post-injection

AECSATCSAGTCSTGAUSAAGCSTAE (ACATCAGTCTGATAAGCTA; modified nucleosides coded in name, code key not given here) [Compound 25070]
luciferase value normalized to beta-galactosidase activity ([1]; 4 nM oligonucleotide, Hela cells, mock transfection 50): 99 | luciferase value normalized to beta-galactosidase activity ([1]; .16 nM oligonucleotide, Hela cells, mock transfection 45): 65 | luciferase value normalized to beta-galactosidase activity ([1]; .8 nM oligonucleotide, Hela cells, mock transfection 33): 87 | inhibition of miR-21 in the luciferase assay (in words) ([1]; Hela cells): demonstrated inhibition of miR-21 in a dose-dependent manner; also recorded: potent inhibitor of miR-21 activity | fold change in luciferase value relative to the mock treatment ([1]; concentration of anti-miR compound 0.2 (unit not given)): 1.04 | fold change in luciferase value relative to the mock treatment ([1]; concentration of anti-miR compound 0.6 (unit not given)): 1.01 | fold change in luciferase value relative to the mock treatment ([1]; concentration of anti-miR compound 1.9 (unit not given)): 1.14 | fold change in luciferase value relative to the mock treatment ([1]; concentration of anti-miR compound 5.6 (unit not given)): 6.22 | fold change in luciferase value relative to the mock treatment ([1]; concentration of anti-miR compound 16.7 (unit not given)): 11.28 | fold change in luciferase value relative to the mock treatment ([1]; concentration of anti-miR compound 50.0 (unit not given)): 11.00 | Collagen Area Fraction (%), Mean ([2]; group mean): 8.0% | Collagen Area Fraction (%), individual animal ([2]; sacrifice Day 10, 20 mg/kg): 7.632% and 9.937% and 8.015% and 6.611% and 6.319% and 11.272% and 6.803% and 7.405% | Collagen Area Fraction (#), individual animal ([3]; 20 mg/kg intraperitoneally on days 5, 6, 7, sacrifice 14 days after IRI, 20 mg/kg): 10.266 and 11.772 and 10.267 and 8.404 and 7.862 and 6.975 and 8.381 and 13.773 | Collagen Area Fraction (#), Mean ([3]; 20 mg/kg intraperitoneally on days 5, 6, 7, sacrifice 14 days after IRI, group mean): 9.7 | reduction in collagen area fraction (in words) ([3]; i.p. 20 mg/kg on days 5, 6, 7, sacrificed 14 days after IRI): statistically significant reduction | reduction in collagen area fraction (in words) ([3]; i.p. on days 5, 6, 7, 14, 21, sacrificed Day 27): statistically significant reduction | Collagen Area Fraction (#), individual animal ([3]; intraperitoneally on days 5, 6, 7, 14, 21, sacrifice Day 27): 7.354 and 9.241 and 9.589 and 11.573 and 8.182 and 10.695 and 13.978 and 10.12 | compound lacking the 3'-terminal nucleoside [4]: about 27% | compound present as the full-length compound [4]: about 58% | compound present in kidney tissue lacking the 3'-terminal nucleoside [5]: about 50%
